# Data taken from paper PMC6366436 (Journal of Enzyme Inhibition and Medicinal Chemistry, 2019).
# Legend:
# SazCA = target: T1, SazCA (Sulfurihydrogenibium azorense, UniProt C1DTU5); format: biochemical; details: read-out: FAM
# T1 construct: gene SULAZ_0541
# Can2 = Can2 (Cryptococcus neoformans, UniProt Q3I4V7); format: biochemical; details: read-out: FAM
# NcoCAγ = target: T2, NcoCAγ (Nostoc commune, UniProt A0A2R5FUA4); format: biochemical; details: TRIS pH 8.3, 0.1 M Na2SO4, 25 °C; 15 min pre-incubation; read-out: FAM
# T2 construct: gene NIES4072_30780
# T2 sequence (A0A2R5FUA4 entry or part of it): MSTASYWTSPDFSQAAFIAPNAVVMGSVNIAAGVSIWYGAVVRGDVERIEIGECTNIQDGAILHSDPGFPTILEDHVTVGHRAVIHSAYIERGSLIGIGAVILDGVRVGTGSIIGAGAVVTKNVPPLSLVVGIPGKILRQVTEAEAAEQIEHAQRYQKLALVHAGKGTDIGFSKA
# CgNce103 = target: T3, CgNce103 (Nakaseomyces glabratus, UniProt Q6FTL6); format: biochemical; details: read-out: FAM
# T3 construct: gene NCE103
# T3 sequence (Q6FTL6 entry or part of it): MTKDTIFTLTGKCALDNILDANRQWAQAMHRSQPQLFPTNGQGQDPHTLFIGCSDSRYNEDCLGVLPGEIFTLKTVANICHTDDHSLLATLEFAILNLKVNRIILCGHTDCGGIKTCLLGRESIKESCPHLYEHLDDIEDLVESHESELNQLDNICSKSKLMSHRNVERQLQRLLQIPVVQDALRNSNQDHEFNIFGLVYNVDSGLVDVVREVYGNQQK
# BpsCAβ = target: T4, BpsCAβ (Burkholderia pseudomallei, UniProt Q63Y17); format: biochemical; details: read-out: FAM
# T4 construct: gene BPSL0372
# T4 sequence (Q63Y17 1-256): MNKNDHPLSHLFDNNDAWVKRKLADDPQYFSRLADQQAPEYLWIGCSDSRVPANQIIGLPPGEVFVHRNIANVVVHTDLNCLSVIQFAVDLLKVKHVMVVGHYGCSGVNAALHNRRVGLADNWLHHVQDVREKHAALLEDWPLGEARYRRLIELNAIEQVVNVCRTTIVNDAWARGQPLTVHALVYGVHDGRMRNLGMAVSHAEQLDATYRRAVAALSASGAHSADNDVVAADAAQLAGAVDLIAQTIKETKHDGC
# PfCA = target: T5, PfCA (Plasmodium falciparum, UniProt Q8IHW5); format: biochemical; details: Hepes pH 7.5, 0.1 M Na2SO4, 25 °C; 15 min pre-incubation; read-out: FAM
# T5 construct: gene PF3D7_1140000
# T5 sequence (Q8IHW5 entry or part of it): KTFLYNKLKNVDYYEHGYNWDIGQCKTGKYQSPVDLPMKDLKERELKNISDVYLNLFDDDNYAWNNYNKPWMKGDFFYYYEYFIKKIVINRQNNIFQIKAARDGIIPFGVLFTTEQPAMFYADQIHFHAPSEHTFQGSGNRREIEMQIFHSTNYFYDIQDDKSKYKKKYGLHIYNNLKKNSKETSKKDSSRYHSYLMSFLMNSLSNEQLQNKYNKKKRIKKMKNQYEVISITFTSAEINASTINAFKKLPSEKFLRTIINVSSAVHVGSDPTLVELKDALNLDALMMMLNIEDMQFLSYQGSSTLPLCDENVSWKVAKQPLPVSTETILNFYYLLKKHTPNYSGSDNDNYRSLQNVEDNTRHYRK
# TweCAδ = target: T6, TweCAδ (Conticribra weissflogii, UniProt Q5U9J1); format: biochemical; details: Hepes pH 7.5, 0.1 M Na2SO4, 25 °C; 15 min pre-incubation; read-out: FAM
# T6 construct: gene ca1
# T6 sequence (Q5U9J1 entry or part of it): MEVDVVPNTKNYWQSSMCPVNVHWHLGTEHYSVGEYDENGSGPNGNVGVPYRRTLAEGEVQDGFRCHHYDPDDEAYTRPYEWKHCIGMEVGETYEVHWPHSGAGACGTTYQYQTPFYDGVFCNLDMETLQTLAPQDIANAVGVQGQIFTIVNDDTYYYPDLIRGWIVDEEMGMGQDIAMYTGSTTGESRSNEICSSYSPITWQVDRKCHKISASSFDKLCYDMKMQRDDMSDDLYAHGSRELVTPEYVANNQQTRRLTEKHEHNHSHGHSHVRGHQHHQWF
# MgaCA = target: T7, MgaCA (Malassezia globosa, UniProt A8Q1N3); format: biochemical; details: read-out: FAM
# T7 construct: gene MGL_1814
# T7 sequence (A8Q1N3 entry or part of it): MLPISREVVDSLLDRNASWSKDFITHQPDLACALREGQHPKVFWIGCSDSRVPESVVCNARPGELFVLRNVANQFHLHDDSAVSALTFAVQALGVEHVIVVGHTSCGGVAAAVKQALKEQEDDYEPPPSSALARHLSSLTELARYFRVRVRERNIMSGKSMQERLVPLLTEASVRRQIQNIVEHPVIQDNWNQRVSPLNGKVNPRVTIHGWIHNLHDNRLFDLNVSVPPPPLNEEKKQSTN
# VchCAα = target: T8, VchCAα (Vibrio cholerae, UniProt Q9KMP6); details: read-out: FAM; Hepes pH 7.5, 0.1 M Na2SO4, 25 °C; 15 min pre-incubation
# T8 construct: gene VC_A0274
# T8 sequence (Q9KMP6 21-239 limits assumed): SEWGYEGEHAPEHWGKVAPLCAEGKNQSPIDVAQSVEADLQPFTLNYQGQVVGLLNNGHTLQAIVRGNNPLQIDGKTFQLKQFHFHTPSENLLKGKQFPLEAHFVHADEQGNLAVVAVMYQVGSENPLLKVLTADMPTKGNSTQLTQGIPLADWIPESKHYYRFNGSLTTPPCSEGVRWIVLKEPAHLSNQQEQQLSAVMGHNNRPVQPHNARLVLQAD
# PhaCAγ = target: T9, PhaCAγ; details: read-out: FAM; TRIS pH 8.3, 0.1 M Na2SO4, 25 °C; 15 min pre-incubation
# T9 construct: gene PhaCA
# BpsCAγ = target: T10, BpsCAγ; details: read-out: FAM
# T10 construct: gene BpsCAgamma
# CpsCAγ = details: read-out: FAM; TRIS pH 8.3, 0.1 M Na2SO4, 25 °C; 15 min pre-incubation
# Chain of CpsCAγ (UPI00051A3E8B entry or part of it): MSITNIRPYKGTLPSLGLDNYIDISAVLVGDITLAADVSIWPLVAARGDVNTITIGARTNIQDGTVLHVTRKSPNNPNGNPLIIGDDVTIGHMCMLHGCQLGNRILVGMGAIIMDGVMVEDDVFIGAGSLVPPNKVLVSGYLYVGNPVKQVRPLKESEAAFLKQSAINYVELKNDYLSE
# TcCA = details: read-out: FAM; Hepes pH 7.5, 0.1 M Na2SO4, 25 °C; 15 min pre-incubation
# VchCAγ = target: T11, VchCAγ (Vibrio cholerae, UniProt Q9KVT1); details: read-out: FAM; TRIS pH 8.3, 0.1 M Na2SO4, 25 °C; 15 min pre-incubation
# T11 construct: gene VC_0058
# T11 sequence (Q9KVT1 1-184): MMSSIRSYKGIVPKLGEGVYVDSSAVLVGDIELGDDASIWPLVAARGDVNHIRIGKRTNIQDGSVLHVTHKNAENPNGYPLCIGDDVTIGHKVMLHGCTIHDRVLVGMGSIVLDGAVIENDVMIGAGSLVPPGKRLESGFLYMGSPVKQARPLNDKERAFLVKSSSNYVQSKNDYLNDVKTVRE
# VchCAβ = target: T12, VchCAβ (Vibrio cholerae, UniProt A0A086SLX8); assay: biochemical
# T12 construct: gene can
# T12 sequence (A0A086SLX8 1-222): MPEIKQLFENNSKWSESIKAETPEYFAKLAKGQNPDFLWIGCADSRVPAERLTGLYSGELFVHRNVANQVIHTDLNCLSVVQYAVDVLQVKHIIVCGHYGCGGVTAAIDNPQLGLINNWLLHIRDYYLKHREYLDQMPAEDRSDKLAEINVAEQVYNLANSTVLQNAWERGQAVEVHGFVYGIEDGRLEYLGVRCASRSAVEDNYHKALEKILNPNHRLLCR
# Carbonate dehydratase = Carbonate dehydratase (Sulfurihydrogenibium sp. (strain YO3AOP1), UniProt B2V8E3); assay: biochemical
# T1 sequence (C1DTU5 entry or part of it): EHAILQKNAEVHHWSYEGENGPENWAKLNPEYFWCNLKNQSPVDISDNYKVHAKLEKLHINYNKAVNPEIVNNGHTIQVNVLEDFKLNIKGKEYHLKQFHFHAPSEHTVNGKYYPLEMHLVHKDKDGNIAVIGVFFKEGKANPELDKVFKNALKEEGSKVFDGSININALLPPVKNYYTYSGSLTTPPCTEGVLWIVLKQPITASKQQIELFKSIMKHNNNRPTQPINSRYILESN
# Chain of Can2 (Q3I4V7 entry or part of it): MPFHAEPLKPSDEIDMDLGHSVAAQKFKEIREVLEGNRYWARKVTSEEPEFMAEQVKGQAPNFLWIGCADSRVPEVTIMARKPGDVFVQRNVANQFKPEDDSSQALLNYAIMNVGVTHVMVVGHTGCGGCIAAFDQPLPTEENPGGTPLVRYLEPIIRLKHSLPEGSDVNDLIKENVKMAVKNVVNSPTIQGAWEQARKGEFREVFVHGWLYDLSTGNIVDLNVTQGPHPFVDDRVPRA
smiles,measurement,setting,value
"NC(N)=Nc1nc(CSCCC(N)=NS(N)(=O)=O)cs1 [FAM, Famotidine]",Ki,SazCA,0.124 µM
same,Ki,Can2,0.107 µM
same,Ki,NcoCAγ,1.69 µM
same,Ki,CgNce103,0.0136 µM
same,Ki,BpsCAβ,8.27 µM
same,Ki,PfCA,0.142 µM
same,Ki,TweCAδ,0.408 µM
same,Ki,MgaCA,42.1 µM
same,Ki,VchCAα,0.0723 µM
same,Ki,PhaCAγ,0.0668 µM
same,Ki,BpsCAγ,8.29 µM
same,Ki,CpsCAγ,0.089 µM
same,Ki,TcCA,5.71 µM
same,Ki,VchCAγ,5.32 µM
same,Ki,VchCAβ,83.9 µM
same,Ki,Carbonate dehydratase,0.23 µM
